The text below walks through data of patent US20240108683A1, “Method for Side Effect Reduction in the Use of Statins Via Physiologically Synthesized Glutathione” (Proimmune Co. LLC, priority 2014, published 2024).

For series [1] the following is noted: as compared to L-cysteine; cited from earlier work.
The next series has as its system oxidized lipid products. Description: Human clinical trial, scavenging of oxidized lipid products. The format is in vivo. The source says:
Moreover, the pharmacological effect of the composition of the instant invention as a replacement of the statin model was unexpected. […] Reason: the instant invention physiologically provides more rate-limiting L-cysteine available in the cell together with the other constituents of glutathione.

Regarding `N[C@@H](CSSC[C@H](N)C(=O)O)C(=O)O` [L-cystine], in series [1], the water solubility entry is on record as “water insoluble”.

On to `CC(=O)N[C@@H](CS)C(=O)O` [N-acetylcysteine], for which the “scavenging of oxidized lipid products” value in the series with oxidized lipid products was found to be 1%.
